Test results taken from patent US7582660B2, “2-thio-substituted imidazole derivatives and their use in pharmaceutics” (c-a-i-r biosciences GmbH, priority 2002, dated 2009).

Assays:
IL-1β [1] = test: In vitro test with human whole blood, LPS-stimulated IL-1β release (ELISA); type: cell-based; details: read-out: K50 (μM) Whole blood IL-1β
Procedure: (§1) They may be administered in one individual dose or in a plurality of doses. The activity spectrum of the compounds as inhibitors of cytokine release was examined using the test systems below, as described by C. Donat and S. Laufer in Arch. Pharm. Pharm. […] 1, 1-40. 2000.
(§2) In Vitro Test with Human Whole Blood
(§3) The reaction is stopped by placing the samples on ice, adding DPBS buffer and then centrifuging at 1000 g for 15 min. The amount of IL-1β and TNFα in the plasma supernatant is then determined by ELISA.

p 38 = p 38 (Homo sapiens, UniProt Q16539); test: Kinase assay (activated p38a, ATF2 substrate, ELISA readout); type: biochemical; details: ATF2, 100 μM ATP
p 38, sequence (Q16539 whole entry): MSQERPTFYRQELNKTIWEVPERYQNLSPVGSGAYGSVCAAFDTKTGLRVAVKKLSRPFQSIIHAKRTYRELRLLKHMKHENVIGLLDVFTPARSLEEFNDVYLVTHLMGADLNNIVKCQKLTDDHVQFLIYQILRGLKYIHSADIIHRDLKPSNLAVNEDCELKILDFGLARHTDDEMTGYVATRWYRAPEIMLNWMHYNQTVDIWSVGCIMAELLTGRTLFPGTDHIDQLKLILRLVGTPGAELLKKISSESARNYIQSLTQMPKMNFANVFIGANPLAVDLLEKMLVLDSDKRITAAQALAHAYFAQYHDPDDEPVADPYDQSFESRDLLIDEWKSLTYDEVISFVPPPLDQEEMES
Procedure: The reaction is stopped by placing the samples on ice, adding DPBS buffer and then centrifuging at 15 880 g for 12 min. The amount of IL-1β and TNFα in the plasma supernatant is then determined by ELISA. 2) Kinase Assay • At 37° C., microtiter plates were coated for one hour with 50 μl of ATF2 solution (20 μg/ml). The plates were washed three times with water, and 50 μl of kinase mixture (50 mM tris-HCl, 10 mM MgCl2, 10 mM β-glycerol phosphate, 10 μg/ml of BSA, 1 mM DTT, 100 μM ATP, 100 μM Na3VO4, 10 ng of activated p38a) with or without inhibitor were added into the wells, and the plates were incubated at 37° C. for 1 hour. The plates were washed three times and then incubated with phosphorus-ATF-2 antibody for one hour. The plates were once more washed three times, and goat-antirabbit IgG labeled with alkaline phosphatase was added at 37° C. for one hour (to fix antibody-phosphorylated protein/substrate complex). The plates were washed three times, and the alkaline phosphatase/substrate solution (3 mM 4-NPP, 50 mM NaHCO3, 50 mM MgCl2, 100 μl/well) was added at 37° C. for 1.5 hours. […] The IC50 values were calculated.

TNF-α [2] = test: In vitro test with PBMCs, LPS-stimulated TNFα release (ELISA); type: cell-based; details: human PBMCs, LPS 4 hours, read-out: IC50 (μM) PBMCA TNF-α
IL-1β [3] = test: In vitro test with PBMCs, LPS-stimulated IL-1β release (ELISA); type: cell-based; details: human PBMCs, LPS 4 hours, read-out: IC50 (μM) PBMCA IL-1β
TNF-α [4] = test: In vitro test with human whole blood, LPS-stimulated TNFα release (ELISA); type: cell-based; details: 1 μg/ml LPS 4 hours, read-out: K50 (μM) Whole blood TNF-α
Procedure: as §1, §2, §3

[5] = human whole blood, 1 μg/ml LPS 4 hours

| IC50 (p 38) [µM] | IC50 (TNF-α [2]; PBMC) [µM] | IC50 (IL-1β [3]; PBMC) [µM] | IC50 (TNF-α [4]) [µM] | IC50 (IL-1β [1]; [5]) [µM] | IC50 (TNF-α [2]) [µM] | IC50 (IL-1β [3]) [µM] | SMILES | IC50 (IL-1β [1]; Homo sapiens, 4 h) [µM] |
| --- | --- | --- | --- | --- | --- | --- | --- | --- |
| – | – | – | – | – | – | – | CSc1nc(-c2ccc(F)cc2)c(-c2ccnc(NC(C)c3ccccc3)c2)[nH]1 (racemic) [Compound 25m, (RS)-{4-[5-(4-Fluorophenyl)-2-methylsulfanyl-3H-imidazol-4-yl]pyridin-2-yl}-(1-phenylethyl)amine] | 0.99 |
| 0.38 | 2.7 | 0.045 | – | – | – | – | CC(Nc1cc(-c2[nH]c(SCc3ccccc3)nc2-c2ccc(F)cc2)ccn1)c1ccccc1 (racemic) [Compound 26d, (RS)-{4-[2-Benzylsulfanyl-S-(4-fluorophenyl)-3H-imidazol-4-yl]pyridin-2-yl}-(1-phenylethyl)amine] | – |
| 0.27 | 0.91 | 0.04 | 10 | 15.7 | – | – | CC(Nc1cc(-c2[nH]c(SCc3ccc([S+](C)[O-])cc3)nc2-c2ccc(F)cc2)ccn1)c1ccccc1 (racemic) [Compound 27d, (RS)-{4-[5-(4-Fluorophenyl)-2-(4-methanesulfinylbenzylsulfanyl)-3H-imidazol-4-yl]pyridin-2-yl}-(1-phenylethyl)amine] | – |
| – | 2.2 | 0.35 | – | – | – | – | CSc1nc(-c2ccc(F)cc2)c(-c2ccnc(Cl)c2)[nH]1 [Compound 25a, 2-Chloro-4-[5-(4-fluorophenyl)-2-methylsulfanyl-3H-imidazol-4-yl]pyridine] | – |
| 3.8 | 2.8 | 0.3 | – | – | – | – | CSc1nc(-c2ccc(F)cc2)c(-c2ccnc(F)c2)[nH]1 [Compound 25b, 2-Fluoro-4-[5-(4-fluorophenyl)-2-methylsulfanyl-3H-imidazol-4-yl]pyridine] | – |
| 8.7 | 4.6 | 2.7 | 7.2 | 2.2 | – | – | CSc1nc(-c2ccc(F)cc2)c(-c2ccnc(OC(C)C)c2)[nH]1 [Compound 25c, 4-[5-(4-Fluorophenyl)-2-methylsulfanyl-3H-imidazol-4-yl]-2-isopropoxypyridin] | – |
| – | 1.9 | 0.15 | – | – | – | – | COc1cc(-c2[nH]c(SC)nc2-c2ccc(F)cc2)ccn1 [Compound 25d, 4-[5-(4-Fluorophenyl)-2-methylsulfanyl-3H-imidazol-4-yl]-2-methoxypyridine] | – |
| – | 3.1 | 0.5 | – | – | – | – | CSc1nc(-c2ccc(F)cc2)c(-c2cc[nH]c(=O)c2)[nH]1 [Compound 25e, 4-[5-(4-Fluorophenyl)-2-methylsulfanyl-3H-imidazol-4-yl]-1H-pyridin-2-one] | – |
| 0.65 | – | – | – | – | 0.63 | 0.108 | CSc1nc(-c2ccc(F)cc2)c(-c2ccnc(NCc3ccccc3)c2)[nH]1 [Compound 25f, Benzyl{4-[S-(4-fluorophenyl)-2-methylsulfanyl-3H-imidazol-4-yl]pyridin-2-yl}-amine] | – |
| 0.79 | 0.64 | 0.056 | – | – | – | – | COc1ccc(CNc2cc(-c3[nH]c(SC)nc3-c3ccc(F)cc3)ccn2)cc1 [Compound 25g, {4-[5-(4-Fluorophenyl)-2-methylsulfanyl-3H-imidazol-4-yl]pyridin-2-yl}-(4-methoxybenzyl)amine] | – |
| 0.83 | 0.67 | 0.085 | 17.3 | 22.3 | – | – | CSc1nc(-c2ccc(F)cc2)c(-c2ccnc(NCc3ccc(C)cc3)c2)[nH]1 [Compound 25h, {4-[5-(4-Fluorophenyl)-2-methylsulfanyl-3H-imidazol-4-yl]pyridin-2-yl}-(4-methylbenzyl)amine] | – |
| 0.95 | 0.5 | 0.15 | 14.8 | 13.3 | – | – | CSc1nc(-c2ccc(F)cc2)c(-c2ccnc(NCc3ccc(Cl)cc3)c2)[nH]1 [Compound 25i, (4-Chlorobenzyl)-{4-[5-(4-fluorophenyl)-2-methylsulfanyl-3H-imidazol-4-yl]-pyridin-2-yl}amine] | – |
| 0.7 | 0.72 | 0.23 | – | – | – | – | CSc1nc(-c2ccc(F)cc2)c(-c2ccnc(NCc3ccc(Cl)c(Cl)c3)c2)[nH]1 [Compound 25j, (3,4-Dichlorobenzyl)-{4-[5-(4-fluorophenyl)-2-methylsulfanyl-3H-imidazol4-yl]-pyridin-2-yl}amine] | – |
| 0.13 | 0.34 | 0.03 | – | – | – | – | CSc1nc(-c2ccc(F)cc2)c(-c2ccnc(Nc3ccccc3)c2)[nH]1 [Compound 25k, {4-[5-(4-Fluorophenyl)-2-methylsulfanyl-3H-imidazol-4-yl]pyridin-2-yl}-phenylamine] | – |
| 0.24 | 0.35 | 0.031 | 14.9 | 17.1 | – | – | CSc1nc(-c2ccc(F)cc2)c(-c2ccnc(NCCc3ccccc3)c2)[nH]1 [Compound 25l, {4-[5-(4-Fluorophenyl)-2-methylsulfanyl-3H-imidazol4-yl]pyridin-2-yl}-phenethylamine] | – |
| – | 60 | 1.8 | – | – | – | – | Fc1ccc(-c2nc(SCc3ccccc3)[nH]c2-c2ccnc(Cl)c2)cc1 [Compound 26a, 4-[2-Benzylsulfanyl-5-(4-fluorophenyl)-3H-imidazol-4-yl]-2-chloropyridine] | – |
| 4.2 | 40.5 | 2.9 | – | – | – | – | Fc1ccc(-c2nc(SCc3ccccc3)[nH]c2-c2ccnc(F)c2)cc1 [Compound 26b, 4-[2-Benzylsulfanyl-5-(4-fluorophenyl)-3H-imidazol-4-yl]-2-fluoropyridine] | – |
| 1.42 | 3.2 | 0.2 | – | – | – | – | Fc1ccc(-c2nc(SCc3ccccc3)[nH]c2-c2ccnc(NCc3ccccc3)c2)cc1 [Compound 26c, Benzyl-{4-[2-benzylsulfanyl-5-(4-fluorophenyl)-3H-imidazol-4-yl]pyridin-2-yl}-amine] | – |
| – | 21 | 0.18 | – | – | – | – | COc1ccc(CNc2cc(-c3[nH]c(SCc4ccccc4)nc3-c3ccc(F)cc3)ccn2)cc1 [Compound 26e, {4-[2-Benzylsulfanyl-5-(4-fluorophenyl)-3H-imidazol-4-yl]pyridin-2-yl}-(4-methoxybenzyl)amine] | – |
| – | 12 | 2.1 | – | – | – | – | C[S+]([O-])c1ccc(CSc2nc(-c3ccc(F)cc3)c(-c3ccnc(Cl)c3)[nH]2)cc1 (centres unmarked) [Compound 27a, 2-Chloro-4-[5-(4-fluorophenyl)-2-(4-methanesulfinylbenzylsulfanyl)-3H-imidazol-4-yl]pyridine] | – |
| 9.3 | 6.9 | 2.45 | – | – | – | – | C[S+]([O-])c1ccc(CSc2nc(-c3ccc(F)cc3)c(-c3ccnc(F)c3)[nH]2)cc1 (centres unmarked) [Compound 27b, 2-Fluoro-4-[5-(4-fluorophenyl)-2-(4-methanesulfinylbenzylsulfanyl)-3H-imidazol-4-yl]pyridine] | – |
| 1.45 | 2 | 0.47 | – | – | – | – | C[S+]([O-])c1ccc(CSc2nc(-c3ccc(F)cc3)c(-c3ccnc(NCc4ccccc4)c3)[nH]2)cc1 (centres unmarked) [Compound 27c, Benzyl-{4-[5-(4-fluorophenyl)-2-(4-methanesulfinylbenzylsulfanyl)-3H-imidazol-4-yl]pyridin-2-yl}amine] | – |
